In the test the test system is endogenous cytokines (TNF-α, IL-6, IL-8, MIP1β, IL-1RA). The test can be described thus: Phase 2a RA study: endogenous plasma cytokines. Format: in vivo, human. Conditions: 50 mg BID. As for the experimental part:
Pharmacodynamics. […] For the endogenous cytokine levels (e.g., TNF-α, IL-1β, IL-6, IL-8, IFNγ, IL-17, IL-18, IL-10, IL-1α, and IL-1RA), 1 mL of serum will be drawn at each identified time point. […] Samples were evaluated at trough drug levels through day 84 and the last point is near Cmax following the final dose on day 84. The horizontal line ( ? ) in FIG. 19A depicts TNF-α levels in blood from normal volunteer subjects that were evaluated in the same assay. […] The horizontal line ( ? ) in FIG. 19B represents IL-1RA levels in healthy subjects. […] Plasma levels of three proinflammatory cytokines (TNF-α (FIG. 20A), IL-6 (FIG. 20C), IL-8 (FIG. 20B)), from a 13-plex tested are shown in this Figure, along with the chemokine MIP1β (FIG. 20D). The data are expressed as median % change relative to pre-dosing for drug treated patients. […] The horizontal line ( ? ) describes cytokine/chemokine level in plasma from normal healthy volunteer subjects.

SMILES strings stand for the structures.

`Cc1cnc(-c2ccnc(C(C)(C)O)n2)cc1-n1c(C)cc(OCc2ncc(F)cc2F)c(Cl)c1=O` (single isomer, unassigned) [ATI-450, 3-chloro-4-((3,5-difluoropyridin-2-yl)methoxy)-2′-(2-(2-hydroxypropan-2-yl)pyrimidin-4-yl)-5′,6-dimethyl-2H-[1,4′-bipyridin]-2-one]: the “median concentrations of endogenous TNF-α, IL-6, IL-8, and MIP1β” value (12-week period) was “marked and sustained inhibition”. Where the note is “12 weeks”, the “endogenous plasma IL-1RA” value is reported as “not impacted by ATI-450”; the “endogenous plasma IL-6, IL-8, and MIP1β” value is “reduced at week 4 and this reduction was maintained through the 12 weeks”. Also, under “trough”, the “endogenous plasma TNF-α” value is recorded as “rapidly reduced by 4 weeks of dosing”.
